According to PubChem BioAssay (NCI):
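Briefly, cells in 96-well plates were exposed to five compound concentrations for 48 h, and endpoints were estimated by linear interpolation. The concentration for 50% growth inhibition is given as GI50. The concentration for full growth arrest is given as TGI.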

Columns and labels:
Test in all cases: inhibition of tumour cell growth, NCI panel, 48 h
[1] = system: SF-295 CNS
[2] = system: SN12C renal
[3] = system: MCF7 breast
[4] = system: SK-MEL-5 melanoma
[5] = system: NCI-H23 lung
[6] = system: UO-31 renal
[7] = system: HOP-62 NSCLC
[8] = system: SW-620 colon
[9] = system: RPMI-8226 leukemia
[10] = system: EKVX NSCLC

Compound	GI50 [1]	TGI [1]	GI50 [2]	TGI [2]	GI50 [3]	TGI [3]	GI50 [4]	TGI [4]	GI50 [5]	TGI [5]	GI50 [6]	TGI [6]	GI50 [7]	TGI [7]	GI50 [8]	TGI [8]	GI50 [9]	TGI [9]	TGI [10]	GI50 [10]
Cc1cc2nc(-c3c(F)cccc3Cl)n(Cc3c(F)cccc3Cl)c2cc1C	6.92 µM	33.3 µM	11.7 µM	24.2 µM	12.8 µM	> 100 µM	11.2 µM	23.6 µM	9.49 µM	22.9 µM	13.2 µM	54.5 µM	13.9 µM	29.1 µM	11.8 µM	32.4 µM	16.3 µM	> 100 µM		
COc1cc(-c2cc(=O)c3c(O)c(OC)c(OC)c(OC)c3o2)cc(OC)c1OC		> 100 µM		> 100 µM		> 100 µM		> 100 µM		> 62.5 µM		> 100 µM		16.9 µM				> 100 µM	> 100 µM	
C=CC(C)(O)CC/C=C(\CO)C(=O)OC1C(C)OC(O[C@](C)(C=C)CC/C=C(\CO)C(=O)O[C@H]2C[C@@]3(C(=O)OC4OC(CO)C(O)C(O)C4OC4OC(C)C(OC5OC(CO)C(O)C5O)C(OC5OC(CO)C(O)C(O)C5O)C4O)C(CC2(C)C)C2=CCC4[C@@]5(C)CC[C@H](OC6OC(COC7OC(C)C(O)C(O)C7OC7OCC(O)C(O)C7O)C(O)C(O)C6NC(C)=O)C(C)(C)C5CC[C@@]4(C)[C@]2(C)C[C@H]3O)C(O)C1O (stereo not given in full)	0.083 µM	0.312 µM	0.0798 µM	0.343 µM	0.822 µM	4.1 µM	1.99 µM	6.22 µM	2.01 µM	7.49 µM	0.234 µM	0.966 µM	0.275 µM	1.58 µM	0.143 µM	4.27 µM	5 µM	18 µM	5.02 µM	0.901 µM
N#C/C(=C\c1ccc2[nH]ccc2c1)C(=O)c1ccc(O)c(O)c1		> 100 µM		> 100 µM		> 100 µM		> 100 µM		> 100 µM		> 100 µM		> 100 µM		> 100 µM		> 100 µM	> 100 µM	
NNC(=O)C(O)C(O)C(=O)NN (stereo not given)		> 100 µM		> 100 µM		> 100 µM		> 100 µM		> 100 µM		> 100 µM		> 100 µM		> 100 µM		> 100 µM	> 100 µM	
CC(C(N)=O)N(C)C(=O)c1cnc2ccccc2c1 (stereo not given)		> 100 µM		> 100 µM		> 100 µM		> 100 µM				> 100 µM				> 100 µM		> 100 µM		
COc1cc2c(cc1OCCCOc1ccc(-c3nc4ccc(N5CCN(C)CC5)cc4[nH]3)cc1)N=C[C@@H]1CCCN1C2=O	< 0.01 µM	< 0.0359 µM	< 0.01 µM	< 0.01 µM	< 0.01 µM	5.12 µM	< 0.01 µM	< 0.01 µM	< 0.01 µM	< 0.01 µM			< 0.01 µM	< 0.01 µM	< 0.01 µM	15.2 µM	< 0.01 µM	< 0.01 µM	< 0.01 µM	< 0.01 µM
Cn1cc(C2=C(c3cn(CCCCC(=N)N)c4ccccc34)C(=O)NC2=O)c2ccccc21	> 13.7 µM	> 25 µM	> 25 µM	> 25 µM	10.9 µM	> 25 µM	> 23.6 µM	> 25 µM	> 25 µM	> 25 µM	> 25 µM	> 25 µM	> 25 µM	> 25 µM	> 25 µM	> 25 µM	> 25 µM	> 25 µM		
Cc1cc(Nc2nc(-c3ccncc3)nc3ccccc23)n[nH]1	17.4 µM	> 100 µM	4.55 µM	> 100 µM	8.18 µM	> 100 µM	52.6 µM	> 100 µM			1.23 µM	> 100 µM	11 µM	> 100 µM	3.71 µM	> 100 µM	> 100 µM	> 100 µM		
CN1CCN(c2ccc3nc(-c4ccc(OCCCCN5CCN(CCCCN6C(=O)c7cccc8cccc(c78)C6=O)CC5)cc4)[nH]c3c2)CC1	62.4 µM	> 100 µM			74.7 µM	> 100 µM	18.8 µM	76.9 µM	> 100 µM	> 100 µM	58.4 µM	> 100 µM	> 100 µM	> 100 µM	39.2 µM	> 100 µM	33.9 µM	> 100 µM	> 100 µM	> 100 µM
COc1ccc(C)cc1C1CCC(=O)O1 (stereo not given)		> 100 µM		> 100 µM				> 100 µM		> 100 µM		> 100 µM		> 100 µM		> 100 µM		> 100 µM	> 100 µM	
NS(=O)(=O)c1ccc(NC(=O)c2cccc(NC3=C(Cl)C(=O)N(Cc4ccccc4)C3=O)c2)cc1	5.59 µM	22.5 µM	11.6 µM	25.9 µM	3.61 µM	14.6 µM	7.87 µM	24.1 µM			2.27 µM	6.4 µM	31.5 µM	> 100 µM	6.1 µM	44.4 µM	3.51 µM	14.7 µM	38.8 µM	17.6 µM
O=C1CCC(=O)c2sccc2N1		> 100 µM		> 100 µM				> 100 µM		> 100 µM		> 100 µM		> 100 µM		> 100 µM		> 100 µM	> 100 µM	
CC1=C(N2CC2)C(=O)c2ccccc2C1=O		2.48 µM		2.09 µM		1.82 µM		0.405 µM				10.6 µM		3.21 µM		1.68 µM			0.744 µM	
COc1ccc2c(c1)/C(=N/OC(C)=O)c1c-2cnc2ccccc12			18.9 µM	36.3 µM	39.7 µM	> 100 µM	17.6 µM	48.5 µM	46.6 µM	> 100 µM	22.2 µM	46.6 µM	20.8 µM	46.6 µM	67.1 µM	> 100 µM	22.3 µM	81.5 µM	> 100 µM	23.1 µM
O=C(/C=C/C1C(=O)NC(=O)NC1=O)CC(=O)C(=O)Nc1cc(Cl)c(Cl)cc1Cl		> 100 µM		> 100 µM				> 100 µM		> 100 µM		> 100 µM		> 100 µM		> 100 µM		> 100 µM	> 100 µM	

Compound	GI50 [1]	TGI [1]	GI50 [2]	TGI [2]	GI50 [3]	TGI [3]	GI50 [4]	TGI [4]	GI50 [5]	TGI [5]	GI50 [6]	TGI [6]	GI50 [7]	TGI [7]	GI50 [8]	TGI [8]	GI50 [9]	TGI [9]	TGI [10]	GI50 [10]
NC(=O)c1ccc(N(C(N)=O)c2c(F)cccc2F)nc1-c1ccc(F)cc1F	> 100 µM	> 100 µM	> 100 µM	> 100 µM	> 100 µM	> 100 µM	> 100 µM	> 100 µM	> 100 µM	> 100 µM	> 100 µM	> 100 µM	> 100 µM	> 100 µM	> 100 µM	> 100 µM	> 100 µM	> 100 µM		
Nc1nc(N)c2c(n1)NC(c1sc(Cl)nc1Cl)CC(c1ccc3c(c1)OCO3)=N2 (stereo not given)	2.21 µM	12.3 µM	6.55 µM	22.3 µM	2.81 µM	47.2 µM	3.43 µM	13.3 µM	8.87 µM	38.2 µM	4.52 µM	24.5 µM	5.32 µM	22.3 µM	2.98 µM	21.5 µM	4.66 µM	25 µM		
Cc1ccc(-c2n[nH]c(=O)c3noc(-c4ccc(C)cc4)c23)cc1			1.4 µM	> 100 µM	0.565 µM	> 100 µM	0.97 µM	> 100 µM	4.86 µM	> 100 µM	1.26 µM	44.9 µM	0.835 µM	13.4 µM	0.427 µM	> 100 µM	0.616 µM	> 100 µM		
O=C1C=Cc2ncccc2C1=O		32.2 µM		48.9 µM				28.2 µM		39.6 µM		> 57.7 µM		> 82.9 µM		31.1 µM		62.4 µM	47.5 µM	
CC(=O)[C-](C(C)=O)c1ccccc1.CC(=O)[C-](C(C)=O)c1ccccc1.CC(=O)[C-](C(C)=O)c1ccccc1.[Cl-].[Zr+4]	> 100 µM	> 100 µM	> 100 µM	> 100 µM			> 100 µM	> 100 µM	> 100 µM	> 100 µM	> 100 µM	> 100 µM	> 100 µM	> 100 µM	> 100 µM	> 100 µM	> 100 µM	> 100 µM	> 100 µM	> 100 µM
CN(C(=O)CNC(=O)/C=C/c1cccc(Cl)c1)C1CCS(=O)(=O)CC1	5.03 µM	> 100 µM	2.99 µM	> 100 µM	1.03 µM	> 100 µM					47 µM	> 100 µM	11 µM	> 100 µM	3.51 µM	> 100 µM	14.8 µM	> 100 µM	> 100 µM	34.3 µM
CCN(CC)Cc1cc(Nc2c3ccccc3nc3cc(Cl)ccc23)ccc1O	1.9 µM	4.86 µM	1.05 µM	2.67 µM	0.96 µM	2.46 µM	1.75 µM	3.16 µM			1.34 µM	2.64 µM	1.73 µM	3.16 µM	1.18 µM	3.63 µM	2.32 µM	6.27 µM	5.99 µM	2.26 µM
O=c1[nH]cc(C(F)(C(F)(F)F)C(F)(F)F)c(=O)[nH]1		> 100 µM		> 100 µM				> 100 µM		> 100 µM		> 100 µM		> 100 µM		> 100 µM		> 100 µM	> 100 µM	
Nc1c(C(=O)Nc2cccc3ccccc23)sc2nc3c(cc12)C(=O)CCC3	0.0779 µM		0.539 µM	> 100 µM	0.206 µM	> 100 µM	0.333 µM	4.44 µM	0.315 µM	> 42.2 µM	0.636 µM	> 95.6 µM	0.315 µM	> 38.2 µM	0.222 µM	> 100 µM	0.366 µM	> 38.2 µM		
C#CCOCn1cnc2ncnc(N)c21		> 100 µM		> 100 µM				> 100 µM		> 100 µM		> 100 µM		> 100 µM		> 100 µM		> 100 µM	> 100 µM	
H-QIYKKYRTWYRKAWKVLGKV-NH2	4.72 µM	23.9 µM	3.56 µM	15 µM			2.84 µM	8.7 µM	3.96 µM	30.1 µM	19.2 µM	39.5 µM	5.15 µM	> 100 µM	13 µM	43.6 µM	6.85 µM	77.7 µM	11.7 µM	3.04 µM
CC(C)N1C(C)[C@@H](c2ccccc2)O[P@]1(=O)CC1=CCCCC1 (stereo not given in full)		> 100 µM		> 100 µM				> 100 µM		> 100 µM		> 100 µM		> 100 µM		> 100 µM		> 100 µM	> 100 µM	
CC(C)(C)Sc1nnc(SC(C)(C)C)c2c(=O)[nH]nc(SC(C)(C)C)c12		23.8 µM		21.9 µM				17.2 µM		22.9 µM		19.7 µM		27 µM		20.8 µM		12.2 µM	24.6 µM	
COc1cccc2c1cc1c3c(cc4c(c32)OCO4)C(=O)N1	7.27 µM	29.1 µM	2.87 µM	19.6 µM	2.96 µM	11.1 µM	4.49 µM	> 100 µM	3.45 µM	13.4 µM	3.47 µM	28.9 µM	6.89 µM	37.6 µM	4.4 µM	> 100 µM	5.29 µM	> 100 µM		
C/C(=N\NS(=O)(=O)c1ccc([N+](=O)[O-])cc1)c1ccc[n+]([O-])n1		7.05 µM		12 µM				5.97 µM		3.6 µM		6.74 µM		4.7 µM		7.99 µM		7.17 µM	20.9 µM	
COc1ccc(NC(=O)C2C(=O)N(c3ccc(OC)cc3)C(=O)/C2=N\NC(N)=O)cc1 (stereo not given)		> 100 µM		> 100 µM				37.7 µM		> 100 µM		80.8 µM		32.9 µM		> 100 µM		> 100 µM	> 100 µM	
